Earlier results on eleven compounds are cited in patent US6068858A, “Methods of making nanocrystalline formulations of human immunodeficiency virus (HIV) protease inhibitors using cellulosic surface stabilizers” (Elan Pharma International Limited, priority 1999, dated 2000).

Tested on in one series: not given
The conditions noted are these: as reported in literature.
Regarding `CSC[C@H](NC(=O)COc1cccc2cnccc12)C(=O)N[C@@H](Cc1ccccc1)[C@H](O)C(=O)N1CSC[C@H]1C(=O)NC(C)(C)C` [KNI-272], the oral bioavailability result is recorded as “low oral bioavailability”.
Turning to `N#Cc1ccc(S(=O)(=O)Nc2cccc(C(c3c(O)c4c(oc3=O)CCCCCC4)C3CC3)c2)cc1` (stereo not shown) [U-103,017], the oral bioavailability result was “low oral bioavailability”.

Still in this series, the particulars now being: in vivo, po.
Take `CC(C)c1nc(CN(C)C(=O)N[C@H](C(=O)N[C@@H](Cc2ccccc2)C[C@H](O)[C@H](Cc2ccccc2)NC(=O)OCc2cncs2)C(C)C)cs1` [ABT-538]: the oral bioavailability result is recorded as “low oral bioavailability”.
For `Cc1c(O)cccc1C(=O)N[C@@H](CSc1ccccc1)[C@H](O)CN1C[C@H]2CCCC[C@H]2C[C@H]1C(=O)NC(C)(C)C` [AG1343], the oral bioavailability entry was “low oral bioavailability”.
For the compound `Nc1cccc(CN2C(=O)N(Cc3cccc(N)c3)[C@H](Cc3ccccc3)[C@H](O)[C@@H](O)[C@H]2Cc2ccccc2)c1` [DMP-450], the oral bioavailability result was “low oral bioavailability”.
With `CC(C)(C)NC(=O)[C@@H]1CN(Cc2cccnc2)CCN1C[C@@H](O)C[C@@H](Cc1ccccc1)C(=O)N[C@H]1c2ccccc2C[C@H]1O` [MK-639], the oral bioavailability entry is listed as “low oral bioavailability”.
As to `CC(C)CN(C[C@@H](O)[C@H](Cc1ccccc1)NC(=O)O[C@H]1CCOC1)S(=O)(=O)c1ccc(N)cc1` [VX-478], the oral bioavailability entry is “low oral bioavailability”.
For the compound `CC(C)(C)NC(=O)[C@@H]1C[C@@H]2CCCC[C@@H]2CN1C[C@@H](O)[C@H](Cc1ccccc1)NC(=O)[C@H](CC(N)=O)NC(=O)c1ccc2ccccc2n1` [saquinavir], the oral bioavailability result was “low oral bioavailability”.

In a further series the test system is HIV RT. The settings on record: background statement.
For `O[C@H](CS)[C@H](O)CS` (racemic) [ddT, dithiothreitol], the “effectiveness in treating HIV infection” value was “only modestly effective”.
For the compound `O=c1[nH]cnc2c1ncn2[C@H]1CC[C@@H](CO)O1` [ddI, didanosine], the “effectiveness in treating HIV infection” value is given as “only modestly effective”.

Staying with this series, now noted: background statement; interfere with cellular enzymes.
With `O[C@H](CS)[C@H](O)CS` (racemic) [ddT, dithiothreitol], the side effects entry is “severe side effects”.
As for `Cc1cn([C@H]2C[C@H](N=[N+]=[N-])[C@@H](CO)O2)c(=O)[nH]c1=O` [AZT, azidothymidine], the side effects result is given as “severe side effects”.
Consider `O=c1[nH]cnc2c1ncn2[C@H]1CC[C@@H](CO)O1` [ddI, didanosine], for which the side effects result is given as “severe side effects”.
